Source: patent US9945862B2, “Biomarkers for predicting and assessing responsiveness of thyroid and kidney cancer subjects to lenvatinib compounds” (Eisai R&D Management Co., Ltd., priority 2011, dated 2018)

Tested on: differentiated thyroid cancer patients
Experiment: Best overall response / tumor response in differentiated thyroid cancer patients treated in phase II with E7080, by tumor mutation status
Assay type: in vivo, human
Description: This experiment was directed at identifying amino acid mutations that are useful in predicting whether subjects respond to treatment with E7080 using three criteria of response: best overall response, tumor shrinkage, and progression free survival.
Tissue samples were obtained at surgery before the patients had received any therapy comprising E7080 and were routinely processed with formalin fixed, paraffin embedded tissues (FFPE). The protocol that was used was approved by the institutional review board, and informed consent was obtained from each subject. Tumor tissue samples from 27 patients, for which tissues were available, were used for mutation analysis. DNA was isolated from FFPE tumor blocks collected from patients participating in the trial. Genomic DNA was extracted from two to five 10 micron unstained sections by deparaffinization and Qiagen DNA Mini Kit Tissue Protocol with minor modification. For mutation detection, the SEQUENOM® (San Diego, Calif.) platform and the OncoCarta™ Panel v1.0 and OncoCarta™ Panel v3.0 were used (see, www.sequenom.com/Files/Genetic-Analysis—Graphics/All-Application—PDFs/AssayExplorer2010_1110-Web/). Sequenom's OncoCarta™ Panels are a set of pre-designed and pre-validated assays for efficient mutation screening. The OncoCarta™ Panel v1.0 genes and the number of mutations (in parentheses) are: ABL1 (14); AKT1 (7); AKT2 (2); BRAF (25); CDK4 (2); EGFR (40); ERBB2 (9); FGFR1 (2); FGRF3 (7); FLT3 (3); HRAS (10); JAK2 (1); KIT (32); KRAS (16); MET (5); NRAS (19); PDGFRA (11); PIK3CA (14); and RET (6). The OncoCarta™ Panel v3.0 genes and the number of mutations (in parentheses) are: ABL1 (2) AKT1 (1); APC (12); BRAF (19); CDKN2A (7); CSF1R (6); CTTNB1 (28); EGFR (32); ERBB2 (2); FLT3 (3); HRAS (2); JAK3 (3); KIT (3); KRAS (5); MET (6); MLH1 (1); MYC (6); PDGFRA (11); PIK3CA (4); PTEN (14); RB1 (11); RET (13); SRC (1); STK11 (12); P53 (7); and VH1 (7). […]
DNA was amplified using the OncoCarta™ PCR primer pools, unincorporated nucleotides were inactivated by shrimp alkaline phosphatase (SAP), and a single base extension reaction was performed using extension primers that hybridize immediately adjacent to the mutations and a custom mixture of nucleotides. Salts were removed by the addition of a cation exchange resin. Multiplexed reactions were spotted onto the SpectroChipII, and mutations, if present, were resolved by MALDI-TOF on the Compact Mass Spectrometer (Sequenom®, San Diego, Calif.). The OncoCarta™ Panel v1.0 (Sequenom®, San Diego, Calif.) consists of 24 pools of primer pairs and 24 pools of extension primers, and has the capacity to detect 225 mutations in 19 genes. The OncoCarta™ Panel v 3.0 consists of 24 pools of primer pairs and 24 pools of extension primers, and has the capacity to detect 218 mutations in 26 genes. Each pool consists of 5-9 primer pairs in the PCR reaction. Two types of assays have been designed in the OncoCarta panel, referred to as simple and complex. The simple assays are those in which a single assay is able to detect the amino acid changes at that codon. The complex assays are those that require more than one assay to identify codon changes or deletions and insertion, and thus are able to detect multiple different amino acid substitutions or deletions. An example of a complex assay involves the use of the KRAS_1 and KRAS_2 assays, which interrogates 2 different nucleotide positions within codon 12 and together identify all codon 12 amino acid changes. In the KRAS G12R mutation, the mutant allele has the codon CGT (Arginine) in contrast to the wild type allele which has the GGT (Glycine) codon. […]

[1] = BRAF.KRAS.NRAS (any of gene) MU
[2] = BRAF.KRAS.NRAS (any of gene) WT
[3] = BRAF.KRAS.NRAS.VHL (any of gene) MU
[4] = BRAF.KRAS.NRAS.VHL (any of gene) WT

Structure (SMILES): COc1cc2nccc(Oc3ccc(NC(=O)NC4CC4)c(Cl)c3)c2cc1C(N)=O [E7080, 4-(3-chloro-4-(cyclopropylaminocarbonyl)aminophenoxy)-7-methoxy-6-quinolinecarboxamide]
- Number of patients with BOR PD [1]: 0
- Number of patients with BOR PR [1]: 10
- Number of patients with BOR SD [1]: 1
- Number of patients with BOR PD [2]: 2
- Number of patients with BOR PR [2]: 3
- Number of patients with BOR SD [2]: 6
- Number of patients with BOR PD [3]: 1
- Number of patients with BOR PR [3]: 10
- Number of patients with BOR SD [3]: 1
- Number of patients with BOR PD [4]: 1
- Number of patients with BOR PR [4]: 3
- Number of patients with BOR SD [4]: 6
- Number of patients with BOR PD (BRAF.KRAS.VHL (any of gene) MU): 2
- Number of patients with BOR PR (BRAF.KRAS.VHL (any of gene) MU): 8
- Number of patients with BOR SD (BRAF.KRAS.VHL (any of gene) MU): 0
- Number of patients with BOR PD (BRAF.KRAS.VHL (any of gene) WT): 0
- Number of patients with BOR PR (BRAF.KRAS.VHL (any of gene) WT): 8
- Number of patients with BOR SD (BRAF.KRAS.VHL (any of gene) WT): 5
- Number of patients with BOR PD (BRAF.NRAS (any of gene) MU): 0
- Number of patients with BOR PR (BRAF.NRAS (any of gene) MU): 8
- Number of patients with BOR SD (BRAF.NRAS (any of gene) MU): 1
- Number of patients with BOR PD (BRAF.NRAS (any of gene) WT): 2
- Number of patients with BOR PR (BRAF.NRAS (any of gene) WT): 5
- Number of patients with BOR SD (BRAF.NRAS (any of gene) WT): 6
- Number of patients with BOR PD (BRAF.VHL (any of gene) MU): 2
- Number of patients with BOR PR (BRAF.VHL (any of gene) MU): 6
- Number of patients with BOR SD (BRAF.VHL (any of gene) MU): 0
- Number of patients with BOR PD (BRAF.VHL (any of gene) WT): 0
- Number of patients with BOR PR (BRAF.VHL (any of gene) WT): 10
- Number of patients with BOR SD (BRAF.VHL (any of gene) WT): 5
- Number of patients with BOR PD (KRAS.NRAS (any of gene) MU): 0
- Number of patients with BOR PR (KRAS.NRAS (any of gene) MU): 8
- Number of patients with BOR SD (KRAS.NRAS (any of gene) MU): 0
- Number of patients with BOR PD (KRAS.NRAS (any of gene) WT): 2
- Number of patients with BOR PR (KRAS.NRAS (any of gene) WT): 5
- Number of patients with BOR SD (KRAS.NRAS (any of gene) WT): 7
- Number of patients with BOR PD (KRAS.NRAS.VHL (any of gene) MU): 1
- Number of patients with BOR PR (KRAS.NRAS.VHL (any of gene) MU): 8
- Number of patients with BOR SD (KRAS.NRAS.VHL (any of gene) MU): 0
- Number of patients with BOR PD (KRAS.NRAS.VHL (any of gene) WT): 1
- Number of patients with BOR PR (KRAS.NRAS.VHL (any of gene) WT): 5
- Number of patients with BOR SD (KRAS.NRAS.VHL (any of gene) WT): 7
- Patients with partial response (PR) (patients with either an NRAS or KRAS mutation): 8 out of 8
- Patients with partial response (PR) (patients without mutations in NRAS and KRAS): 5 out of 14
- Clinical outcome in differentiated thyroid cancer patients (phase II): Tumor response and prolonged disease stabilization were observed
